Source: patent publication US8796289B2 (AbbVie Inc., priority 2011, dated 2014)

target: GST-tagged-Wee1 kinase (Homo sapiens, UniProt P30291); experiment: Wee1 time-resolved fluorescence equilibrium binding assay (displacement of Oregon Green-labeled ATP-competitive kinase probe); settings: not given
Procedure: Wee1 kinase was assayed using a time-resolved fluorescence equilibrium binding assay monitoring displacement of a rapidly reversible Oregon Green-labeled ATP-competitive kinase probe (N-(2-(2-(2-(4-(4-(5-chloro-4-(2-(1-hydroxycyclobutyl)thiazol-5-yl)-1H-pyrrolo[2,3-b]pyridin-2-yl)phenyl)piperazin-1-yl)ethoxy)ethoxy)ethyl)-2′,7′-difluoro-3′,6′-dihydroxy-3-oxo-3H-spiro[isobenzofuran-1,9′-xanthene]-5-carboxamide) by competitive Wee1 inhibitors.

GST-tagged-Wee1 kinase, sequence (P30291 whole entry): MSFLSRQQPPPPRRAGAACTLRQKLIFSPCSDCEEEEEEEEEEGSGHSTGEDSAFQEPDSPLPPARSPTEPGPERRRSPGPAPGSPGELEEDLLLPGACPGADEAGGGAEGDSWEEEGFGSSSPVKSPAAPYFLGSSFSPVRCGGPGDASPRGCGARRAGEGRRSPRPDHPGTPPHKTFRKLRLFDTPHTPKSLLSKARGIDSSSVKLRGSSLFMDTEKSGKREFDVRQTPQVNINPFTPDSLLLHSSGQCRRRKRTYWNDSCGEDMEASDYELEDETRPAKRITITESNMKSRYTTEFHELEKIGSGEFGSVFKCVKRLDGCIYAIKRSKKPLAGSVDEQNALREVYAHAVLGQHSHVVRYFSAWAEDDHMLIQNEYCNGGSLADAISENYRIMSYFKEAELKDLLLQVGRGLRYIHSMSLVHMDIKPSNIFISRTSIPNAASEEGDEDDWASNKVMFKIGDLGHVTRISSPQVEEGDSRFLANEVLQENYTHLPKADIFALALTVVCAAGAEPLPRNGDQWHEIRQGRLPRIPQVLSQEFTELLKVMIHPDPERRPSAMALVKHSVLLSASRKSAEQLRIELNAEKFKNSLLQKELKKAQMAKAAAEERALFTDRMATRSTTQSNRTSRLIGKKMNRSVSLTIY

Ki [nM] | Molecule
0.4 | CN1CCc2ccc(Nc3ncc4c(=O)n(-c5ccccc5Cl)nc(-c5cccs5)c4n3)cc2C1 [Example 167, 6-(2-chlorophenyl)-2-[(2-methyl-1,2,3,4-tetrahydroisoquinolin-7-yl)amino]-8-(2-thienyl)pyrimido[4,5-d]pyridazin-5(6H)-one]
0.91 | Cc1nn(-c2c(Cl)cccc2Cl)c(=O)c2cnc(Nc3ccc4c(c3)CN(S(C)(=O)=O)CC43CC3)nc12 [Example 427, 6-(2,6-dichlorophenyl)-8-methyl-2-{[2′-(methylsulfonyl)-2′,3′-dihydro-1′H-spiro[cyclopropane-1,4′-isoquinolin]-7′-yl]amino}pyrimido[4,5-d]pyridazin-5(6H)-one]
0.4 | CN1CCN(c2ccc(Nc3ncc4c(=O)n(-c5ccccc5Cl)nc(-c5ccncc5)c4n3)cc2)CC1 [Example 155, 6-(2-chlorophenyl)-2-{[4-(4-methylpiperazin-1-yl)phenyl]amino}-8-(pyridin-4-yl)pyrimido[4,5-d]pyridazin-5(6H)-one]
1.4 | CN1CCN(c2ccc(Nc3ncc4c(=O)n(-c5c(Cl)cccc5Cl)nc(-c5cncs5)c4n3)cc2)CC1 [Example 307, 6-(2,6-dichlorophenyl)-2-{[4-(4-methylpiperazin-1-yl)phenyl]amino}-8-(1,3-thiazol-5-yl)pyrimido[4,5-d]pyridazin-5(6H)-one]
0.8 | Cc1ccccc1-n1nc(-c2ccccc2)c2nc(Nc3ccc(N4CCN(C)CC4)cc3)ncc2c1=O [Example 28, 6-(2-methylphenyl)-2-{[4-(4-methylpiperazin-1-yl)phenyl]amino}-8-phenylpyrimido[4,5-d]pyridazin-5(6H)-one]
0.3 | CN1CCN(c2ccc(Nc3ncc4c(=O)n(-c5c(Cl)cccc5Cl)nc(-c5cccc(-c6c[nH]cn6)c5)c4n3)cc2)CC1 [Example 91, 6-(2,6-dichlorophenyl)-8-[3-(1H-imidazol-4-yl)phenyl]-2-{[4-(4-methylpiperazin-1-yl)phenyl]amino}pyrimido[4,5-d]pyridazin-5(6H)-one]
0.3 | Cc1cc(Nc2ncc3c(=O)n(-c4ccccc4C)nc(-c4ccco4)c3n2)ccc1N1CCCN(C(C)C)CC1 [Example 246, 8-(furan-2-yl)-6-(2-methylphenyl)-2-({3-methyl-4-[4-(propan-2-yl)-1,4-diazepan-1-yl]phenyl}amino)pyrimido[4,5-d]pyridazin-5(6H)-one]
250 | C=CCn1nc(C2CCCC2)c2nc(Nc3ccc(N4CCN(C)CC4)cc3)ncc2c1=O [Example 15, 6-allyl-8-cyclopentyl-2-{[4-(4-methylpiperazin-1-yl)phenyl]amino}pyrimido[4,5-d]pyridazin-5(6H)-one]
0.39 | O=c1c2cnc(Nc3ccc(N4CCNCC4)cc3)nc2c(-c2cncs2)nn1-c1c(Cl)cccc1Cl [Example 319, 6-(2,6-dichlorophenyl)-2-{[4-(piperazin-1-yl)phenyl]amino}-8-(1,3-thiazol-5-yl)pyrimido[4,5-d]pyridazin-5(6H)-one]
0.4 | COCc1nn(-c2c(Cl)cccc2Cl)c(=O)c2cnc(Nc3ccc(N4CCNCC4)cc3)nc12 [Example 424, 6-(2,6-dichlorophenyl)-8-(methoxymethyl)-2-{[4-(piperazin-1-yl)phenyl]amino}pyrimido[4,5-d]pyridazin-5(6H)-one]
0.5 | Cc1nn(-c2c(Cl)cccc2Cl)c(=O)c2cnc(Nc3ccc(C4CCCN4)cc3)nc12 (stereo not drawn) [Example 455, 6-(2,6-dichlorophenyl)-8-methyl-2-{[4-(pyrrolidin-2-yl)phenyl]amino}pyrimido[4,5-d]pyridazin-5(6H)-one]
0.47 | CN1CCN(c2ccc(Nc3ncc4c(=O)n(-c5c(Cl)cncc5Cl)nc(-c5ccncc5)c4n3)cc2)CC1 [Example 358, 6-(3,5-dichloropyridin-4-yl)-2-{[4-(4-methylpiperazin-1-yl)phenyl]amino}-8-(pyridin-4-yl)pyrimido[4,5-d]pyridazin-5(6H)-one]
3 | Cc1ccccc1-n1nc(-c2ccccc2F)c2nc(Nc3ccc(N4CCN(C)CC4)cc3)ncc2c1=O [Example 36, 8-(2-fluorophenyl)-6-(2-methylphenyl)-2-{[4-(4-methylpiperazin-1-yl)phenyl]amino}pyrimido[4,5-d]pyridazin-5(6H)-one]
2.9 | Cc1nn(-c2ncccc2Cl)c(=O)c2cnc(Nc3ccc4c(c3)CN(C)CC4(C)C)nc12 [Example 365, 6-(3-chloropyridin-2-yl)-8-methyl-2-[(2,4,4-trimethyl-1,2,3,4-tetrahydroisoquinolin-7-yl)amino]pyrimido[4,5-d]pyridazin-5(6H)-one]
0.99 | CCOc1cccc(-c2nn(-c3c(F)cccc3Cl)c(=O)c3cnc(Nc4ccc(N5CCN(C)CC5)cc4)nc23)n1 [Example 299, 6-(2-chloro-6-fluorophenyl)-8-(6-ethoxypyridin-2-yl)-2-{[4-(4-methylpiperazin-1-yl)phenyl]amino}pyrimido[4,5-d]pyridazin-5(6H)-one]
0.2 | CN1CCN(c2ccc(Nc3ncc4c(=O)n(-c5c(Cl)cccc5Cl)nc(-c5ccn(CCN6CCCCC6)n5)c4n3)cc2)CC1 [Example 232, 6-(2,6-dichlorophenyl)-2-{[4-(4-methylpiperazin-1-yl)phenyl]amino}-8-{1-[2-(piperidin-1-yl)ethyl]-1H-pyrazol-3-yl}pyrimido[4,5-d]pyridazin-5(6H)-one]
3.7 | Cc1nn(-c2ncccc2Cl)c(=O)c2cnc(Nc3ccc4c(c3)CC(N(C)C)C4)nc12 (stereo not drawn) [Example 367, 6-(3-chloropyridin-2-yl)-2-{[2-(dimethylamino)-2,3-dihydro-1H-inden-5-yl]amino}-8-methylpyrimido[4,5-d]pyridazin-5(6H)-one]
0.2 | Cc1nn(-c2c(Cl)cccc2Cl)c(=O)c2cnc(Nc3ccc(NC4CCNCC4)cc3)nc12 [Example 525, 6-(2,6-dichlorophenyl)-8-methyl-2-{[4-(piperidin-4-ylamino)phenyl]amino}pyrimido[4,5-d]pyridazin-5(6H)-one]
3 | C=CCn1nc(-c2ccco2)c2nc(Nc3ccc(N4CCN(C(C)C)CC4)c(C)c3)ncc2c1=O [Example 146, 6-allyl-8-(2-furyl)-2-{[4-(4-isopropylpiperazin-1-yl)-3-methylphenyl]amino}pyrimido[4,5-d]pyridazin-5(6H)-one]
230 | C=CCn1nc(C2CC(F)(F)C2)c2nc(Nc3ccc(N4CCN(C)CC4)cc3)ncc2c1=O [Example 196, 8-(3,3-difluorocyclobutyl)-2-{[4-(4-methylpiperazin-1-yl)phenyl]amino}-6-(prop-2-en-1-yl)pyrimido[4,5-d]pyridazin-5(6H)-one]
1.1 | CN1CCN(c2ccc(Nc3ncc4c(=O)n(-c5c(Cl)cccc5Cl)nc(-c5ccc(Br)cc5)c4n3)cc2)CC1 [Example 276, 8-(4-bromophenyl)-6-(2,6-dichlorophenyl)-2-{[4-(4-methylpiperazin-1-yl)phenyl]amino}pyrimido[4,5-d]pyridazin-5(6H)-one]
0.4 | CN1CCN(c2ccc(Nc3ncc4c(=O)n(-c5c(Cl)cccc5Cl)nc(-c5ccnc(C(=O)N(C)C)c5)c4n3)cc2)CC1 [Example 248, 4-[6-(2,6-dichlorophenyl)-2-{[4-(4-methylpiperazin-1-yl)phenyl]amino}-5-oxo-5,6-dihydropyrimido[4,5-d]pyridazin-8-yl]-N,N-dimethylpyridine-2-carboxamide]
0.09 | CN1CCN(c2ccc(Nc3ncc4c(=O)n(-c5c(Cl)cccc5Cl)nc(-c5cccnc5)c4n3)cc2)CC1 [Example 99, 6-(2,6-dichlorophenyl)-2-{[4-(4-methylpiperazin-1-yl)phenyl]amino}-8-(pyridin-3-yl)pyrimido[4,5-d]pyridazin-5(6H)-one]
3 | CN1CCN(c2ccc(Nc3ncc4c(=O)n(-c5ccccc5)nc(-c5ccc(-c6ncccn6)cc5)c4n3)cc2)CC1 [Example 59, 2-{[4-(4-methylpiperazin-1-yl)phenyl]amino}-6-phenyl-8-[4-(pyrimidin-2-yl)phenyl]pyrimido[4,5-d]pyridazin-5(6H)-one]
0.49 | CN1CCN(c2ccc(Nc3ncc4c(=O)n(-c5ncccc5Cl)nc(-c5ccncc5)c4n3)cc2)CC1 [Example 336, 6-(3-chloropyridin-2-yl)-2-{[4-(4-methylpiperazin-1-yl)phenyl]amino}-8-(pyridin-4-yl)pyrimido[4,5-d]pyridazin-5(6H)-one]
3 | Cc1cc(Nc2ncc3c(=O)n(-c4ccccc4C)nc(-c4ccco4)c3n2)ccc1N1CCN(C(C)C)CC1 [Example 133, 8-(2-furyl)-2-{[4-(4-isopropylpiperazin-1-yl)-3-methylphenyl]amino}-6-(2-methylphenyl)pyrimido[4,5-d]pyridazin-5(6H)-one]
0.1 | CN1CCN(c2ccc(Nc3ncc4c(=O)n(-c5c(Cl)cccc5Cl)nc(-c5cccc(C(=O)N6CCC6)c5)c4n3)cc2)CC1 [Example 216, 8-[3-(azetidin-1-ylcarbonyl)phenyl]-6-(2,6-dichlorophenyl)-2-{[4-(4-methylpiperazin-1-yl)phenyl]amino}pyrimido[4,5-d]pyridazin-5(6H)-one]
0.33 | CN1CCN(c2ccc(Nc3ncc4c(=O)n(-c5c(Cl)cccc5Cl)nc(-c5ccc(C(=O)O)cc5)c4n3)cc2)CC1 [Example 290, 4-[6-(2,6-dichlorophenyl)-2-{[4-(4-methylpiperazin-1-yl)phenyl]amino}-5-oxo-5,6-dihydropyrimido[4,5-d]pyridazin-8-yl]benzoic acid]
1 | CN1CCN(c2ccc(Nc3ncc4c(=O)n(-c5c(Cl)cccc5Cl)nc(-c5ccccc5F)c4n3)cc2)CC1 [Example 45, 6-(2,6-dichlorophenyl)-8-(2-fluorophenyl)-2-{[4-(4-methylpiperazin-1-yl)phenyl]amino}pyrimido[4,5-d]pyridazin-5(6H)-one]

same assay, conditions: read-out: Wee-1 inhibition Ki

Molecule | Ki [nM]
6-(2,6-dichlorophenyl)-8-(3-furyl)-2-{[4-(4-methylpiperazin-1-yl)phenyl]amino}pyrimido[4,5-d]pyridazin-5(6H)-one [Example 95] | 0.1
